This note sets out measurements from patent publication US8487001B2, “Medium-chain length fatty acids, glycerides and analogues as neutrophil survival and activation factors” (ProMetic BioSciences Inc., priority 2001, dated 2013).

“And” between values parts separate entries of the source, which are not always exact repeats. Identical values can stand only once.

The subject of one series is bone marrow cells. In words: In vivo chemoprotection: bone marrow cell count. As for the experimental part:
(§1) To examine the immunoprotective effect of MCT or other compounds, mice were pre-treated orally at day-3, -2 and -1 or treated intravenously at day 0 with the test compound. Mice were sacrificed at day +5 by cardiac puncture and cervical dislocation. Then, cell suspensions were prepared from thymus, spleen and bone marrow as follow.
(§2) Tissues were crushed in PBS buffer and contaminating erythrocytes were lysed in ACK buffer (155 mM NH4Cl, 12 mM NaHCO3, 0.1 mM EDTA, pH 7.3) for 5 minutes. Cells were then collected by centrifugation and washed three times in PBS and resuspended in tissue culture medium. Cells were counted on a hemacytometer.
(§3) Chemoprotection studies were performed as described in example 16 except that mice were (post)-treated with MCT, sodium caprylate, sodium caprate or capric acid per o.s. on day 1, 2, 3 and 4.

In the next series the test system is bone marrow cell subsets. In words: Bone marrow immunophenotyping (CD34, CD13, CD41, CD38). The class given is in vivo, C57BL/6 mice. Particulars: mouse, in vivo. As for the experimental part:
(§4) Female, 6- to 8-week old, C57BL/6 mice were pre-treated on day -3, -2 and -1 per o.s. or intravenously at day 0 with different concentrations of MCT. Immunophenotyping was also performed on immunosuppressed animals. […] Mice were sacrificed on day 5 by cardiac puncture. Blood and spleens were collected and cell suspensions prepared and erythrocytes lysed in ACK buffer (155 mM NH4Cl, 12 mM NaHCO3, 0.1 mM EDTA, pH 7.3) for 5 minutes. The cells were washed three times in PBS, pH 7.4 and resuspended in tissue culture medium. The cells were then incubated for 45 minutes on ice with fluorescein isothiocyanate (FITC) or phycoerythrin (PE) conjugated cell surface marker according to the manufacturer's (Gibco/BRL, Cedarlane, Boehringer Mannheim) recommendation. The cells were then washed in PBS, fixed with 1% paraformaldehyde and analyzed with a Coulter XL flow cytometer. Analysis of the cell subsets was undertaken by determination of standard cell surface markers which were as follows: TCR (T-cell receptor), CD4 (T helper), CD8 (T cytotoxic/suppressor), CD11b (macrophage), NK (NK cells) and Ly5 (B-cells). Bone marrow cells were obtained as described in example 15. Cells were stained by a 45 minutes incubation of FITC or PE conjugated cell surface marker according to the manufacturer's recommendation. The cells were then washed in PBS, fixed with 1% paraformaldehyde and analyzed with a Coulter XL flow cytometer. Analysis of the cell subsets was undertaken by determination of standard cell surface markers which were as follows: CD34 (hematopoietic progenitor cells), CD41 (platelets, megakaryocytes), CD13 (myelomonocytic stem cells, myelocytes, promonocytes) and CD38 (lymphoid stem cells, pro-B, pre-B).
The effect of MCT, sodium caprylate, sodium caprate on bone marrow immunophenotyping was assessed by the protocol described in example 26.

In the next series the test system is spleen cell subsets. In words: Spleen immunophenotyping (flow cytometry of cell surface markers). The class given is in vivo, C57BL/6 mice. The conditions noted are these: mouse, in vivo. The procedure: as §4
In the next series the test system is blood cell subsets. Nature of the series: Blood immunophenotyping (flow cytometry of cell surface markers). The class given is in vivo, C57BL/6 mice. The conditions noted are these: mouse, in vivo. The procedure: as §4
In a further series the test system is DA-3 breast carcinoma. Nature of the series: Antitumor activity in DA-3 breast carcinoma model. The class given is in vivo, BALB/c mice. The procedure:
The syngeneic tumor DMBA3 (DA-3, breast carcinoma model) arose from a preneoplastic lesion treated with 7,12-dimethylbenzanthracene in female BALB/c mice. DA-3 cells were grown as monolayer cultures in plastic flasks in RPMI-1640 containing 0.1 mM nonessential amino acids, […], 2 mM L-glutamine and 100 μg/ml gentamycin sulfate. This was further supplemented with 50 μM 2-mercaptoethanol and 10% fetal bovine serum. The DA-3 tumors were serially passage in vivo by s.c. inoculation of 5×10^5 viable tumor cells to produce localized tumors in 6- to 8-week old BALB/c mice. The animals were then serially monitored by manual palpation for evidence of tumor. Serial tumor volume was obtained by bi-dimensional diameter measurements with calipers, using the formula […] (a×b^2) where “a” was the major tumor diameter and “b” the minor perpendicular diameter.
BABL/c mice were injected with tumor cells on day 0. […] Body weights and tumor volumes were monitored from day 4 until day 23. At day 23, all animals were sacrificed. The % T/C (treatment over control) was calculated as the ratio of tumor volumes at termination date in the treatment group divided by the respective volumes in the control group multiplied by 100. By the NCl criteria the product is considered effective if % T/C is ≦40%.

The next series has as its system spleen cells. In words: In vivo chemoprotection: spleen cell count. As for the experimental part:
as §1, §2, §3

The subject of a further series is human neutrophils (PMN). In words: Doxorubicin-induced neutrophil apoptosis, comparison to GM-CSF (% PMN viability). The conditions noted are these: for effect on doxorubicin-induced human neutrophil apoptosis: Table 2. In kind it is cell-based. From the text: Table 2 represents the effect of GM-CSF, MCT and tricaprylin on doxorubicin-induced human neutrophil apoptosis.

Another series deals with thymus. Nature of the series: In vivo: thymus weight, MCT versus GM-CSF. The conditions noted are these: normal mice; FIG. 8. As for the experimental part:
as §1
In vivo comparison on the induction of immune cell proliferation/regeneration or protection was undertaken following the protocol described in example 16. Comparative studies of MCT and GM-CSF were performed on normal and immunosuppressed animals.

[1] abbreviates: Table 5, CY-treated mice, CY + test compound (CY line = CY alone), protocol of example 16.
Setting [2] is: Table 6, CY-treated mice, CY + test compound (CY line = CY alone), protocol of example 16.
Where [3] appears, read: Table 7, CY-treated mice, CY + test compound 6.25 μMole pre-treatment (CY line = CY alone).
Where [4] appears, read: Table 8, CY-immunosuppressed mice, CY + test compound 6.25 μM (CY line = CY alone).
Setting [5] is: Table 9, CY-immunosuppressed mice, CY + test compound 6.25 μMole (CY line = CY alone).
[6] abbreviates: Table 10, CY-treated mice, post-treatment per o.s. on day 1, 2, 3 and 4 with test substance 12.5 μM (CY line = CY alone).
Setting [7] is: Table 16, CY-treated mice, CY + test compound (CY line = CY alone), protocol of example 16.
The mark [8] stands for this setting: Table 19, sub-therapeutic CY 100 mg/kg, TX 20 mg/kg i.v. day 9 and 16, MCT per os, day 23.
Setting [9] is: CY-treated mice, protocol of example 16 (pre-treatment).
The mark [10] stands for this setting: immunosuppressed animals, comparison MCT versus GM-CSF.

Turning to `O=P1(N(CCCl)CCCl)NCCCO1` (stereo not drawn) [CY, cyclophosphamide, reference compound], in the series with bone marrow cells (FIG. 6, cytotoxic drug i.v. at day 0), the “effect of cytotoxic drug on bone marrow cell count compared to the control” value is on record as “depressed the bone marrow cell count compared to the control”. Moreover, the “Bone Marrow # Cells (×10^6)” value in the series on bone marrow cells (setting [1]) was 22 ± 5.7 ×10^6; in the series on bone marrow cells (setting [2]), 22 ± 5.8 ×10^6; in the series with bone marrow cells (setting [3]), 32 ± 6.3 ×10^6; with bone marrow cells (setting [4]), 27 ± 2.8 ×10^6; with bone marrow cells (setting [5]), 25 ± 4.9 ×10^6; with bone marrow cells (setting [6]), 19 ± 4.99 ×10^6. Further, the “Bone Marrow # Cells (×10^6)” value in the series on bone marrow cells (setting [7]) is given as 28 ± 3.4 ×10^6; with bone marrow cells (Table 17, CY-treated mice, CY + test compound (CY line = CY alone), protocol of example 16) it was 26.2 ± 2.6 ×10^6; in the series with bone marrow cells (Table 18, CY-treated mice, CY + test compound (CY line = CY alone), protocol of example 16), 27.5 ± 8.0 ×10^6. Moreover, the “% Cells CD13+ (bone marrow)” value with bone marrow cell subsets came to 3.2 ± 0.5%. In addition, in the series on bone marrow cell subsets, the “% Cells CD34+ (bone marrow)” value turned out to be 10 ± 1.0%. The “% Cells CD38+ (bone marrow)” value in the series with bone marrow cell subsets is given as 39.6 ± 13.6%. In addition, in the series on bone marrow cell subsets, the “% Cells CD41+ (bone marrow)” value was found to be 4.2 ± 0.6%. Besides, the “Bone marrow immunophenotyping” value in the series on bone marrow cell subsets is “induces a significant increase in all studied subsets”. Moreover, the “Spleen Immunophenotyping: CD11+ cell subset (relative percentage)” value in the series on spleen cell subsets worked out at 16.31 ± 4.85. For the same compound, the “Spleen Immunophenotyping: NK+ cell subset (relative percentage)” value in the series with spleen cell subsets is given as 7.53 ± 2.52. The “Blood Immunophenotyping: CD11+ cell subset (relative percentage)” value with blood cell subsets amounted to 26.41 ± 4.54. Further, the “Blood Immunophenotyping: LY5−TCR− cell subset (relative percentage)” value in the series on blood cell subsets was 36.82 ± 9.93 and 56.36 ± 7.26 and 40.91 ± 8.84. In the series with DA-3 breast carcinoma (FIG. 12, Table 20, therapeutic CY 200 mg/kg, TX 30 mg/kg), the “effect on tumor volume compared to the control” value is “significant reduction of the tumor volume”. The “Treated/Control (%)” value with DA-3 breast carcinoma (setting [8]) is recorded as 46.8%. The Tumor volume in the series on DA-3 breast carcinoma (setting [8]) amounted to 27.5 ± 15.9. The “T/C (%)” value in the series with DA-3 breast carcinoma (Table 20, therapeutic CY 200 mg/kg, TX 30 mg/kg) is 18.8%. The “effect of cytotoxic drug on spleen cell count compared to the control” value in the series on spleen cells (FIG. 7, cytotoxic drug i.v. at day 0) was “reduce significantly the spleen cell count compared to the control”. The “Spleen # Cells (×10^6)” value in the series on spleen cells (setting [1]) was 23 ± 4.0 ×10^6; with spleen cells (setting [2]), 36 ± 13.6 ×10^6; with spleen cells (setting [3]), 24 ± 6 ×10^6; in the series with spleen cells (setting [4]), 19 ± 6.5 ×10^6; with spleen cells (setting [5]), 33 ± 13.2 ×10^6; in the series with spleen cells (setting [6]) it was 30 ± 9.5 ×10^6. Further, the “Spleen # Cells (×10^6)” value with spleen cells (setting [7]) is 29 ± 9.2 ×10^6.
For the compound `CCCCCCCC(=O)OCC(COC(=O)CCCCCCC)OC(=O)CCCCCCC` [tricaprylin], the “effect on bone marrow cell count compared to cyclophosphamide treated mice” value in the series on bone marrow cells (setting [9]) is on record as “efficacious in the proliferation or protection of bone marrow cell counts”. For the same compound, in the series on bone marrow cells (setting [2]), the “Bone Marrow # Cells (×10^6)” value is recorded as 34 ± 7.8 ×10^6. Moreover, the “effect on spleen cell count compared to cyclophosphamide treated mice” value in the series on spleen cells (setting [9]) was “No significant effect”. Further, in the series on spleen cells (setting [2]), the “Spleen # Cells (×10^6)” value was 37 ± 12.6 ×10^6. In addition, the “effect on doxorubicin-induced human neutrophil apoptosis” value in the series with human neutrophils (PMN) is “rescues doxorubin-induced apoptosis and further enhances the viability of human neutrophils to a higher extent than that observed in the non-treated neutrophils”.
Consider `CCCCCCCCCC(=O)OCC(N)COC(=O)CCCCCCCCC` [didecanoyl serinol, 1,3-O,O-Didecanoyl serinol], for which the melting point amounted to 101 °C. Also, in the series with bone marrow cells (setting [7]), the “Bone Marrow # Cells (×10^6)” value is listed as 30 ± 3.8 ×10^6. In the series with spleen cells (setting [7]), the “Spleen # Cells (×10^6)” value is given as 36 ± 9.9 ×10^6.
On to “GM-CSF: granulocyte-macrophage colony stimulating factor, hematopoietic growth factor”, for which the “activity on bone marrow cell count” value in the series on bone marrow cells (setting [10]) was “has no significant activity on bone marrow and spleen cell counts”. Moreover, the “activity on spleen cell count” value in the series with spleen cells (setting [10]) is “has no significant activity on bone marrow and spleen cell counts”. For the same compound, the “% PMN Viability” value in the series with human neutrophils (PMN) (GM-CSF 10^-7 M + DOX (10^-5 M)) was determined as 16.75 ± 2.05%; in the series on human neutrophils (PMN) (GM-CSF 10^-8 M + DOX (10^-5 M)), 6.99 ± 0.23%. In the series with human neutrophils (PMN), the “effect on doxorubicin-induced human neutrophil apoptosis” value is listed as “able to rescue or protect human neutrophils against doxorubicin-induced apoptosis”. For the same compound, the “effect on thymus weight” value in the series on thymus is given as “significant effect”.
